Measured values: patent publication US12275687B2 (priority 2017, dated 2025)
Substitutions are numbered along the chain they refer to. Each block holds one compound with its values, some of them ahead of it.

Assays:
[1] = target: T1, wild-type BLT1 (Cavia porcellus, UniProt H0VYV8); test: Competition binding of BIIL260 to 0.5 nM ^3H-LTB4, wild-type BLT1 in HEK293 membrane fraction; set-up: species or system guinea pig; conditions: WT
T1 construct: expressed in transfected cells; host or cells: HEK293 (membrane fraction)
T1 sequence (H0VYV8 1-348): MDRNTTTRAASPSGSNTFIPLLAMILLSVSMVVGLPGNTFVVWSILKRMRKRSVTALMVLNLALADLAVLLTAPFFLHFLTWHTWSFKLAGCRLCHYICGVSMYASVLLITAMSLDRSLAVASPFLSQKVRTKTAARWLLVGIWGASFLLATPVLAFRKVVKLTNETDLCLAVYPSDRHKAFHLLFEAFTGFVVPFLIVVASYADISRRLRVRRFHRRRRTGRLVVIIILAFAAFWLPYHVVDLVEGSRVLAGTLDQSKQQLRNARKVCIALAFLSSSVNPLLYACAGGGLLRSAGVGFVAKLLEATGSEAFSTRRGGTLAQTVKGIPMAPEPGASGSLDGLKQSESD
Excerpt: (A) Structure of the BIIL260-binding site. BIIL260 and the BLT1 side chains within 4 Å from BIIL260 are represented by stick models, and transmembrane helices are depicted by thin ribbons. Sulfur atoms are colored gold. (B) Schematic representation of the BLT1-BIIL260 interaction. Intermolecular forces such as the salt bridge, hydrogen bonding, π-to-edge, CH-to-π, and hydrophobic interactions are indicated in red, blue, orange, violet, and green, respectively. The three non-identical residues in human BLT1 and BLT2, a cognate receptor of BLT1, are highlighted in green shaded boxes, and the corresponding residues of human BLT1 and BLT2 (hBLT1 and hBLT2, respectively) are also presented. (C) Competition binding assays of BIIL260 to 0.5 nM ^3H-LTB4, using the membrane fractions of HEK293 cells expressing the mutant and wild-type BLT1s. The mutations were introduced at the residues involved in the specific BIIL260 binding. Each point (±s.e.m.) indicates the mean value of two independent experiments, each with triplicate reactions. NS is non-specific binding measured with 0.5 μM LTB4. […]

[2] = target: T2, BLT1 W236^6.48A mutant (Cavia porcellus, UniProt H0VYV8, W236A); test: Competition binding of BIIL260 to 0.5 nM ^3H-LTB4, BLT1 mutant in HEK293 membrane fraction; set-up: species or system guinea pig
T2 construct: expressed in transfected cells; host or cells: HEK293 (membrane fraction)
T2 sequence (H0VYV8 1-348 W236A): as the sequence (H0VYV8 1-348) above, with W236A counted along it
Excerpt: (§1) (A) Structure of the BIIL260-binding site. BIIL260 and the BLT1 side chains within 4 Å from BIIL260 are represented by stick models, and transmembrane helices are depicted by thin ribbons. Sulfur atoms are colored gold. (B) Schematic representation of the BLT1-BIIL260 interaction. Intermolecular forces such as the salt bridge, hydrogen bonding, π-to-edge, CH-to-π, and hydrophobic interactions are indicated in red, blue, orange, violet, and green, respectively. The three non-identical residues in human BLT1 and BLT2, a cognate receptor of BLT1, are highlighted in green shaded boxes, and the corresponding residues of human BLT1 and BLT2 (hBLT1 and hBLT2, respectively) are also presented. (C) Competition binding assays of BIIL260 to 0.5 nM ^3H-LTB4, using the membrane fractions of HEK293 cells expressing the mutant and wild-type BLT1s. The mutations were introduced at the residues involved in the specific BIIL260 binding. Each point (±s.e.m.) indicates the mean value of two independent experiments, each with triplicate reactions. NS is non-specific binding measured with 0.5 μM LTB4.
(§2) For the evaluation of the thermostabilities of guinea pig BLT1 mutants designed by the consensus method (FIG. 8A), point mutations were introduced using a QuikChange kit (Agilent) to the previously constructed thermostabilized BLT1 mutant cDNA (residues 1-14 deleted, H83G/K88G/S309A mutations, and an N-terminal FLAG-tag) in the pcDNA3 vector (Hori, T. et al., Protein Expr. Purif. 72 (2010) 66-74; Hori, T. et al., Biochem. Biophys. Rep. 4 (2015) 243-249). The expression vectors encoding the BLT1 mutants were transfected into COS-7 cells with Lipofectamine 2000. For the analysis of the BIIL260 binding residues of BLT1, point mutations were introduced, using the In-Fusion enzyme (Clontech), into the wild-type BLT1 cDNA with the N-terminal FLAG-tag in the pcDNA3 vector. The expression vectors were transfected into HEK293 cells, using polyethyleneimine. […] The BLT1 mutants were transiently expressed for three days at 37° C. The cells were washed with PBS, harvested with PBS-EDTA, disrupted with a sonicator, and centrifuged at 800×g for 5 min. The supernatant was further ultra-centrifuged at 100,000×g for 60 min, and the precipitate was collected.
(§3) For the evaluation of the ligand-binding activity of the BLT1 mutants and BLT1-T4Ls, a ^3H-LTB4 binding assay was performed using the BLT1-expressing membrane fractions of COS-7, HEK293, or P. pastoris cells, as described previously (Hori T. et al., 2010, supra; Hori T. et al., 2015, supra). For the evaluation of the thermostability, the membrane fraction was heat-treated before the ^3H-LTB4 binding assay.

[3] = target: T3, BLT1 V69^2.53A mutant (Cavia porcellus, UniProt H0VYV8, V69A); test: as above; set-up: species or system guinea pig
T3 construct: expressed in transfected cells; host or cells: HEK293 (membrane fraction)
T3 sequence (H0VYV8 1-348 V69A): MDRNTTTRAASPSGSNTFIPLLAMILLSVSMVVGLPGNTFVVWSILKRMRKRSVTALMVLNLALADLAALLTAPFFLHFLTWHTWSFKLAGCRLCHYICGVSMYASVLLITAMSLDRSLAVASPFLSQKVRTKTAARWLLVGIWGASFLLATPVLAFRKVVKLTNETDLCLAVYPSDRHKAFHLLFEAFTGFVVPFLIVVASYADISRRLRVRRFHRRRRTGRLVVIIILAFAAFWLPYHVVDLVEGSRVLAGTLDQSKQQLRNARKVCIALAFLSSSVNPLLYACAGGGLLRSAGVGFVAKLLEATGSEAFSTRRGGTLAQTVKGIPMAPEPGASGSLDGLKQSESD
Excerpt: as §1, §2, §3

[4] = target: T4, BLT1 L80^2.64A mutant (Cavia porcellus, UniProt H0VYV8, L80A); test: as above; set-up: species or system guinea pig
T4 construct: expressed in transfected cells; host or cells: HEK293 (membrane fraction)
T4 sequence (H0VYV8 1-348 L80A): as the sequence (H0VYV8 1-348) above, with L80A counted along it
Excerpt: as §1, §2, §3

[5] = target: T5, BLT1 S106^3.39A mutant (Cavia porcellus, UniProt H0VYV8, S106A); test: as above; set-up: species or system guinea pig
T5 construct: expressed in transfected cells; host or cells: HEK293 (membrane fraction)
T5 sequence (H0VYV8 1-348 S106A): as the sequence (H0VYV8 1-348) above, with S106A counted along it
Excerpt: as §1, §2, §3

[6] = target: T6, BLT1 D66^2.50A mutant (Cavia porcellus, UniProt H0VYV8, D66A); test: as above; set-up: species or system guinea pig
T6 construct: expressed in transfected cells; host or cells: HEK293 (membrane fraction)
T6 sequence (H0VYV8 1-348 D66A): T3 sequence (H0VYV8 1-348 V69A) with D66A, A69V
Excerpt: as §1, §2, §3

[7] = target: T7, BLT1 S276^7.45A mutant (Cavia porcellus, UniProt H0VYV8, S276A); test: as above; set-up: species or system guinea pig
T7 construct: expressed in transfected cells; host or cells: HEK293 (membrane fraction)
T7 sequence (H0VYV8 1-348 S276A): as the sequence (H0VYV8 1-348) above, with S276A counted along it
Excerpt: as §1, §2, §3

[8] = target: BLT1-T4L; test: Competition assay of ligands against ^3H-LTB4, BLT1-T4L expressed in P. pastoris; format: binding, guinea pig; conditions: for logIC50: log value (negative)
Excerpt: (§4) For the ligand binding assay of BLT1-T4Ls, the T4L cDNA was integrated into the cDNA, encoding the newly generated thermostable BLT1 mutant with the additional mutation V212A, by the consensus method (residues 1-14 deleted and H83G/K88G/V212A/S309A mutations), with the α-factor PrePro signal sequence and the FLAG tag at the N-terminal, and the PreScission site and the His6 tag at the C-terminal of BLT1 (Hori T. et al., 2010, supra) in the pPIC3.5K vector, using the In-Fusion enzyme (FIG. 7A). The expression vectors were introduced into the yeast Pichia pastoris using an EasyComp kit (Thermo Fisher Scientific). BLT1-T4Ls were expressed in 10 ml cultures, and the membrane fraction was prepared as described previously (Hori T. et al., 2010, supra; Hon T. et al., 2015, supra).
as §3

[9] = target: T8, BLT1 (Cavia porcellus, UniProt H0VYV8); test: TGFα shedding assay with benzamidine (G-protein activation by LTB4); format: cell-based; set-up: expressed in transfected cells; conditions: for logβ / β: LTB4-induced efficacy modulation by benzamidine; for logτA: agonist signaling efficacy; for KA / logKA: equilibrium dissociation constant of LTB4; for logKA: log value as printed; for Em: maximum possible signal response
T8 sequence (H0VYV8 1-348): as the sequence (H0VYV8 1-348) above
Method: Each point (±s.e.m.) indicates the mean value of three independent experiments, each with triplicate reactions. […] Each point (±s.e.m.) indicates the mean value of three independent experiments, each with triplicate reactions. […] Each point (±s.e.m.) indicates the mean value of triplicate reactions. […] To determine the parameters, three steps of fitting procedures were performed.

[10] = target: T8, BLT1; test: Saturation binding assay of ^3H-LTB4 and BLT1 with various concentrations of benzamidine; set-up: expressed in transfected cells; host or cells: HEK293 (membrane fraction); species or system guinea pig
Method: Each point (±s.e.m.) indicates the mean value of three independent experiments, each with triplicate reactions. […] Each point (±s.e.m.) indicates the mean value of three independent experiments, each with triplicate reactions. […] Each point (±s.e.m.) indicates the mean value of triplicate reactions. For the evaluation of the ligand-binding activity of the BLT1 mutants and BLT1-[…], a ^3H-LTB4 binding assay was performed using the BLT1-expressing membrane fractions of COS-7, HEK293, or P. pastoris cells, as described previously (Hori T. et al., 2010, supra; Hori T. et al., 2015, supra). For the evaluation of the thermostability, the membrane fraction was heat-treated before the ^3H-LTB4 binding assay.

[11] = target: T1, wild-type BLT1; test: Competition binding assay of benzamidine and NaCl to 0.5 nM ^3H-LTB4 (allosteric modulation titration analysis); set-up: species or system guinea pig
Excerpt: Each point (±s.e.m.) indicates the mean value of three independent experiments, each with triplicate reactions. […] Each point (±s.e.m.) indicates the mean value of three independent experiments, each with triplicate reactions. […] Each point (±s.e.m.) indicates the mean value of triplicate reactions. For the evaluation of the thermostabilities of guinea pig BLT1 mutants designed by the consensus method (FIG. 8A), point mutations were introduced using a QuikChange kit (Agilent) to the previously constructed thermostabilized BLT1 […] deleted, […] mutations, and an N-terminal FLAG-tag) in the pcDNA3 vector (Hori, T. et al., Protein Expr. Purif. 72 (2010) 66-74; Hori, T. et al., Biochem. Biophys. Rep. 4 (2015) 243-249). The expression vectors encoding the BLT1 mutants were transfected into COS-7 cells with Lipofectamine 2000. For the analysis of the BIIL260 binding residues of BLT1, point mutations were introduced, using the In-Fusion enzyme (Clontech), into the wild-type BLT1 cDNA with the N-terminal FLAG-tag in the pcDNA3 vector. The expression vectors were transfected into HEK293 cells, using polyethyleneimine. […] The BLT1 mutants were transiently expressed for three days at 37° C. The cells were washed with PBS, harvested with PBS-EDTA, disrupted with a sonicator, and centrifuged at 800×g for 5 min. The supernatant was further ultra-centrifuged at 100,000×g for 60 min, and the precipitate was collected. For the evaluation of the ligand-binding activity of the BLT1 mutants and BLT1-[…], a ^3H-LTB4 binding assay was performed using the BLT1-expressing membrane fractions of COS-7, HEK293, or P. pastoris cells, as described previously (Hori T. et al., 2010, supra; Hori T. et al., 2015, supra). For the evaluation of the thermostability, the membrane fraction was heat-treated before the ^3H-LTB4 binding assay. […] For all of the pharmacological analyses, nonlinear regression curve fitting was performed using Prism 5 (Graph Pad Software).

[12] = target: BLT1-T4L; test: Saturation binding of ^3H-LTB4, BLT1-T4L expressed in P. pastoris (membrane fraction); set-up: species or system guinea pig; conditions: saturation binding of ^3H-LTB4, ICL3-10 construct
Excerpt: as §4, §3

[13] = saturation binding, global fitting
[14] = cooperative factor between ^3H-LTB4 and the modulator

IC50 [1]: 30 nM
logIC50 ([1]; log value (negative)): −7.5
IC50 [2]: 62 nM
logIC50 ([2]; log value (negative)): −7.2
IC50 [3]: 33 nM
logIC50 ([3]; log value (negative)): −7.5
IC50 [4]: 12 nM
logIC50 ([4]; log value (negative)): −7.9
IC50 [5]: 12 nM
logIC50 ([5]; log value (negative)): −7.9
logIC50 (IC50) ([6]; D66^2.50A): No binding
BIIL260-binding ability ([6]; D66^2.50A mutation): abrogated
IC50 ([7]; S276^7.45A): 124 nM
BIIL260-binding ability ([7]; S276^7.45A mutation): decreased
logIC50 ([7]; S276^7.45A, log value (negative)): −6.9
Ki [8]: 2.3 nM
SMILES: CC(C)(c1ccc(O)cc1)c1ccc(OCc2cccc(COc3ccc(C(=N)N)cc3)c2)cc1 [BIIL260]
logIC50 [8]: −8.5

BLT1-LTB4-mediated Gq/il and G16 activation ([9]; FIGS. 3C and 3D): decreased
logα ([9]; G16): −0.45
α ([9]; G16): (α = 0.36)
logβ ([9]; G16): −1.6
β ([9]; G16): (β = 0.03)
logα ([9]; Gq/i1): 0.00
α ([9]; Gq/i1): (α = 1.00)
logβ ([9]; Gq/i1): −1.9
β ([9]; Gq/i1): (β = 0.01)
cooperative factor of the LTB4-induced efficacy modulation (β) ([9]; as a whole): < 1
cooperative factor of the binding of LTB4 to BLT1 (α) ([9]; as a whole (binding and shedding assays)): ≤ 1
binding affinity of LTB4 toward BLT1 ([10]; FIG. 3B): lowered
logα [10, 13]: −0.93
α [10, 13]: (α = 0.12)
logα [11, 14]: −0.82
α [11, 14]: (α = 0.15)
SMILES: N=C(N)c1ccccc1 [Benzamidine, benzamidine]
level of the LTB4-BLT1 binding ([11]; FIG. 3A): decreased the level of the LTB4-BLT1 binding in a benzamidine concentration-dependent manner
suppression of the BLT1-LTB4 binding compared with the sodium ion ([11]; FIG. 3A): more potently than the sodium ion, by one order of magnitude

SMILES: CCCCC/C=C\C[C@@H](O)/C=C/C=C/C=C\[C@@H](O)CCCC(=O)O [LTB4, leukotriene B4]
Kd [12]: 1.2 ± 0.1 nM
logτA ([9]; G16, Em = 20): 0.076
KA ([9]; G16): (KA = 9.2 nM)
logKA ([9]; G16): −8.0
Em ([9]; G16): 27.6
logτA ([9]; Gq/i1, in n = 1, Em = 25): 0.82
KA ([9]; Gq/i1): (KA = 24 nM)
logKA ([9]; Gq/i1): −7.6
Em ([9]; Gq/i1): 26.7
Kd ([10]; equilibrium dissociation constant of ^3H-LTB4, global fitting with benzamidine): 0.6 nM
Ki [8]: 0.67 nM
logIC50 [8]: −9.0
